# Assay results taken from PubChem BioAssay (NCI).
#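 Interpolation was linear, between the two tested concentrations surrounding the appropriate level; five concentrations were tested over 48 hours in 96-well plates. The concentration for 50% growth inhibition is given as GI50. TGI: concentration producing complete growth inhibition.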
# Columns and labels:
# Test in all cases: NCI anticancer screen, dose series, 48 h
# 786-0 renal = system: 786-0 renal
# A498 renal = system: A498 renal
# A549 NSCLC = system: A549 NSCLC
# ACHN renal = system: ACHN renal
# BT-549 breast = system: BT-549 breast
# CAKI-1 renal = system: CAKI-1 renal
# COLO 205 colon = system: COLO 205 colon
# DU-145 prostate = system: DU-145 prostate
# EKVX NSCLC = system: EKVX NSCLC
# HCC-2998 colon = system: HCC-2998 colon
# HCT-116 colon = system: HCT-116 colon
# HCT-15 colon = system: HCT-15 colon
# HL-60(TB) leukemia = system: HL-60(TB) leukemia
# HOP-62 NSCLC = system: HOP-62 NSCLC
# HOP-92 NSCLC = system: HOP-92 NSCLC
# HS 578T breast = system: HS 578T breast
# HT29 colon = system: HT29 colon
# IGROV1 ovarian = system: IGROV1 ovarian
# K-562 leukemia = system: K-562 leukemia
# KM12 colon = system: KM12 colon
# LOX IMVI melanoma = system: LOX IMVI melanoma
# M14 melanoma = system: M14 melanoma
# MCF7 breast = system: MCF7 breast
# MDA-MB-435 = system: MDA-MB-435
# MOLT-4 leukemia = system: MOLT-4 leukemia
# NCI-H226 lung = system: NCI-H226 lung
# NCI-H23 lung = system: NCI-H23 lung
# NCI-H460 lung = system: NCI-H460 lung
# NCI-H522 lung = system: NCI-H522 lung
# NCI/ADR-RES ovarian = system: NCI/ADR-RES ovarian
# OVCAR-3 ovarian = system: OVCAR-3 ovarian
# OVCAR-4 ovarian = system: OVCAR-4 ovarian
# OVCAR-5 ovarian = system: OVCAR-5 ovarian
# OVCAR-8 ovarian = system: OVCAR-8 ovarian
# PC-3 prostate = system: PC-3 prostate
# RPMI-8226 leukemia = system: RPMI-8226 leukemia
# RXF 393 renal = system: RXF 393 renal
# SF-268 CNS = system: SF-268 CNS
# SF-295 CNS = system: SF-295 CNS
# SF-539 CNS = system: SF-539 CNS
# SK-MEL-2 melanoma = system: SK-MEL-2 melanoma
# SK-MEL-28 melanoma = system: SK-MEL-28 melanoma
# SK-MEL-5 melanoma = system: SK-MEL-5 melanoma
# SK-OV-3 ovarian = system: SK-OV-3 ovarian
# SN12C renal = system: SN12C renal
# SNB-19 CNS = system: SNB-19 CNS
# SNB-75 CNS = system: SNB-75 CNS
# SR leukemia = system: SR leukemia
# SW-620 colon = system: SW-620 colon
# T-47D breast = system: T-47D breast
# TK-10 renal = system: TK-10 renal
# U251 CNS = system: U251 CNS
# UACC-62 melanoma = system: UACC-62 melanoma
# UO-31 renal = system: UO-31 renal
compound,measurement,setting,value
O=S(=O)(NCCCNc1cc(-c2cn(-c3ccccc3)nc2-c2cccc(O)c2)ccn1)c1ccc(C(F)(F)F)cc1,GI50,786-0 renal,1.57 µM
same,TGI,786-0 renal,3.7 µM
same,GI50,A498 renal,1.1 µM
same,TGI,A498 renal,2.64 µM
same,GI50,A549 NSCLC,2.14 µM
same,TGI,A549 NSCLC,7.45 µM
same,GI50,ACHN renal,3.08 µM
same,TGI,ACHN renal,10.7 µM
same,GI50,BT-549 breast,1.39 µM
same,TGI,BT-549 breast,2.8 µM
same,GI50,CAKI-1 renal,2.08 µM
same,TGI,CAKI-1 renal,7.81 µM
same,GI50,COLO 205 colon,1.78 µM
same,TGI,COLO 205 colon,3.54 µM
same,GI50,DU-145 prostate,2.65 µM
same,TGI,DU-145 prostate,8.11 µM
same,GI50,EKVX NSCLC,2.45 µM
same,TGI,EKVX NSCLC,10.7 µM
same,GI50,HCC-2998 colon,1.92 µM
same,TGI,HCC-2998 colon,3.53 µM
same,GI50,HCT-116 colon,1.44 µM
same,TGI,HCT-116 colon,2.95 µM
same,GI50,HCT-15 colon,1.47 µM
same,TGI,HCT-15 colon,3.36 µM
same,GI50,HL-60(TB) leukemia,2.52 µM
same,TGI,HL-60(TB) leukemia,6.2 µM
same,GI50,HOP-62 NSCLC,1.95 µM
same,TGI,HOP-62 NSCLC,3.78 µM
same,GI50,HOP-92 NSCLC,1.56 µM
same,TGI,HOP-92 NSCLC,3.9 µM
same,GI50,HS 578T breast,1.46 µM
same,TGI,HS 578T breast,5.77 µM
same,GI50,HT29 colon,1.23 µM
same,TGI,HT29 colon,3.18 µM
same,GI50,IGROV1 ovarian,3.24 µM
same,TGI,IGROV1 ovarian,9.55 µM
same,GI50,K-562 leukemia,0.924 µM
same,TGI,K-562 leukemia,4.59 µM
same,GI50,KM12 colon,1.89 µM
same,TGI,KM12 colon,4.49 µM
same,GI50,LOX IMVI melanoma,1.67 µM
same,TGI,LOX IMVI melanoma,3.12 µM
same,GI50,M14 melanoma,1.66 µM
same,TGI,M14 melanoma,3.24 µM
same,GI50,MCF7 breast,2.11 µM
same,TGI,MCF7 breast,6.58 µM
same,GI50,MDA-MB-435,1.74 µM
same,TGI,MDA-MB-435,3.46 µM
same,GI50,MOLT-4 leukemia,1.83 µM
same,TGI,MOLT-4 leukemia,5.36 µM
same,GI50,NCI-H226 lung,2.31 µM
same,TGI,NCI-H226 lung,6.25 µM
same,GI50,NCI-H23 lung,1.65 µM
same,TGI,NCI-H23 lung,3.94 µM
same,GI50,NCI-H460 lung,1.86 µM
same,TGI,NCI-H460 lung,3.86 µM
same,GI50,NCI-H522 lung,2.28 µM
same,TGI,NCI-H522 lung,4.83 µM
same,GI50,NCI/ADR-RES ovarian,2.45 µM
same,TGI,NCI/ADR-RES ovarian,7.13 µM
same,GI50,OVCAR-3 ovarian,1.92 µM
same,TGI,OVCAR-3 ovarian,4.03 µM
same,GI50,OVCAR-4 ovarian,1.87 µM
same,TGI,OVCAR-4 ovarian,5.78 µM
same,GI50,OVCAR-5 ovarian,1.92 µM
same,TGI,OVCAR-5 ovarian,5.16 µM
same,GI50,OVCAR-8 ovarian,2.47 µM
same,TGI,OVCAR-8 ovarian,7.66 µM
same,GI50,PC-3 prostate,1.93 µM
same,TGI,PC-3 prostate,4.57 µM
same,GI50,RPMI-8226 leukemia,1.66 µM
same,TGI,RPMI-8226 leukemia,4.82 µM
same,GI50,RXF 393 renal,1.24 µM
same,TGI,RXF 393 renal,2.84 µM
same,GI50,SF-268 CNS,1.85 µM
same,TGI,SF-268 CNS,4.95 µM
same,GI50,SF-295 CNS,1.79 µM
same,TGI,SF-295 CNS,3.64 µM
same,GI50,SF-539 CNS,1.83 µM
same,TGI,SF-539 CNS,3.77 µM
same,GI50,SK-MEL-2 melanoma,1.88 µM
same,TGI,SK-MEL-2 melanoma,3.63 µM
same,GI50,SK-MEL-28 melanoma,1.99 µM
same,TGI,SK-MEL-28 melanoma,4.29 µM
same,GI50,SK-MEL-5 melanoma,1.56 µM
same,TGI,SK-MEL-5 melanoma,2.97 µM
same,GI50,SK-OV-3 ovarian,2.39 µM
same,TGI,SK-OV-3 ovarian,5.95 µM
same,GI50,SN12C renal,1.81 µM
same,TGI,SN12C renal,3.67 µM
same,GI50,SNB-19 CNS,2.04 µM
same,TGI,SNB-19 CNS,5.55 µM
same,GI50,SNB-75 CNS,1.45 µM
same,TGI,SNB-75 CNS,5.06 µM
same,GI50,SR leukemia,1.78 µM
same,TGI,SR leukemia,5.83 µM
same,GI50,SW-620 colon,1.78 µM
same,TGI,SW-620 colon,3.93 µM
same,GI50,T-47D breast,2.49 µM
same,TGI,T-47D breast,7.08 µM
same,GI50,TK-10 renal,3.32 µM
same,TGI,TK-10 renal,9.84 µM
same,GI50,U251 CNS,1.28 µM
same,TGI,U251 CNS,3.26 µM
same,GI50,UACC-62 melanoma,1.53 µM
same,TGI,UACC-62 melanoma,3.17 µM
same,GI50,UO-31 renal,2.04 µM
same,TGI,UO-31 renal,5.74 µM
